# Data from BigSolDB 2.1.
compound,measurement,setting,value
Cc1n[nH]c(=S)s1,solubility (mole fraction),"in ethanol, 283.15 K",0.0105
same,solubility (mole fraction),"in ethanol, 288.15 K",0.0131
same,solubility (mole fraction),"in ethanol, 293.15 K",0.0156
same,solubility (mole fraction),"in ethanol, 298.15 K",0.0184
same,solubility (mole fraction),"in ethanol, 303.15 K",0.0219
same,solubility (mole fraction),"in ethanol, 308.15 K",0.0249
same,solubility (mole fraction),"in ethanol, 313.15 K",0.0297
same,solubility (mole fraction),"in ethanol, 318.15 K",0.0342
same,solubility (mole fraction),"in ethanol, 323.15 K",0.04
same,solubility (mole fraction),"in ethyl acetate, 283.15 K",0.0152
same,solubility (mole fraction),"in ethyl acetate, 288.15 K",0.0173
same,solubility (mole fraction),"in ethyl acetate, 293.15 K",0.0197
same,solubility (mole fraction),"in ethyl acetate, 298.15 K",0.0221
same,solubility (mole fraction),"in ethyl acetate, 303.15 K",0.0244
same,solubility (mole fraction),"in ethyl acetate, 308.15 K",0.0272
same,solubility (mole fraction),"in ethyl acetate, 313.15 K",0.0307
same,solubility (mole fraction),"in ethyl acetate, 318.15 K",0.0338
same,solubility (mole fraction),"in ethyl acetate, 323.15 K",0.038
same,solubility (mole fraction),"in ethyl formate, 283.15 K",0.00842
same,solubility (mole fraction),"in ethyl formate, 288.15 K",0.01
same,solubility (mole fraction),"in ethyl formate, 293.15 K",0.0114
same,solubility (mole fraction),"in ethyl formate, 298.15 K",0.0134
same,solubility (mole fraction),"in ethyl formate, 303.15 K",0.0151
same,solubility (mole fraction),"in ethyl formate, 308.15 K",0.0176
same,solubility (mole fraction),"in ethyl formate, 313.15 K",0.0202
same,solubility (mole fraction),"in ethyl formate, 318.15 K",0.0227
same,solubility (mole fraction),"in ethyl formate, 323.15 K",0.0257
same,solubility (mole fraction),"in isobutanol, 283.15 K",0.00538
same,solubility (mole fraction),"in isobutanol, 288.15 K",0.00689
same,solubility (mole fraction),"in isobutanol, 293.15 K",0.00881
same,solubility (mole fraction),"in isobutanol, 298.15 K",0.0112
same,solubility (mole fraction),"in isobutanol, 303.15 K",0.0143
same,solubility (mole fraction),"in isobutanol, 308.15 K",0.0172
same,solubility (mole fraction),"in isobutanol, 313.15 K",0.0216
same,solubility (mole fraction),"in isobutanol, 318.15 K",0.0271
same,solubility (mole fraction),"in isobutanol, 323.15 K",0.0319
same,solubility (mole fraction),"in isopropanol, 283.15 K",0.00763
same,solubility (mole fraction),"in isopropanol, 288.15 K",0.00943
same,solubility (mole fraction),"in isopropanol, 293.15 K",0.0115
same,solubility (mole fraction),"in isopropanol, 298.15 K",0.0143
same,solubility (mole fraction),"in isopropanol, 303.15 K",0.0179
same,solubility (mole fraction),"in isopropanol, 308.15 K",0.0215
same,solubility (mole fraction),"in isopropanol, 313.15 K",0.0258
same,solubility (mole fraction),"in isopropanol, 318.15 K",0.0314
same,solubility (mole fraction),"in isopropanol, 323.15 K",0.0374
same,solubility (mole fraction),"in methanol, 283.15 K",0.0104
same,solubility (mole fraction),"in methanol, 288.15 K",0.0129
same,solubility (mole fraction),"in methanol, 293.15 K",0.0153
same,solubility (mole fraction),"in methanol, 298.15 K",0.018
same,solubility (mole fraction),"in methanol, 303.15 K",0.0213
same,solubility (mole fraction),"in methanol, 308.15 K",0.0246
same,solubility (mole fraction),"in methanol, 313.15 K",0.0292
same,solubility (mole fraction),"in methanol, 318.15 K",0.0337
same,solubility (mole fraction),"in methanol, 323.15 K",0.0396
same,solubility (mole fraction),"in methyl acetate, 283.15 K",0.0167
same,solubility (mole fraction),"in methyl acetate, 288.15 K",0.0189
same,solubility (mole fraction),"in methyl acetate, 293.15 K",0.021
same,solubility (mole fraction),"in methyl acetate, 298.15 K",0.0234
same,solubility (mole fraction),"in methyl acetate, 303.15 K",0.0257
same,solubility (mole fraction),"in methyl acetate, 308.15 K",0.0284
same,solubility (mole fraction),"in methyl acetate, 313.15 K",0.0313
same,solubility (mole fraction),"in methyl acetate, 318.15 K",0.0342
same,solubility (mole fraction),"in methyl acetate, 323.15 K",0.0382
same,solubility (mole fraction),"in n-butanol, 283.15 K",0.00723
same,solubility (mole fraction),"in n-butanol, 288.15 K",0.00904
same,solubility (mole fraction),"in n-butanol, 293.15 K",0.0109
same,solubility (mole fraction),"in n-butanol, 298.15 K",0.0136
same,solubility (mole fraction),"in n-butanol, 303.15 K",0.0164
same,solubility (mole fraction),"in n-butanol, 308.15 K",0.0194
same,solubility (mole fraction),"in n-butanol, 313.15 K",0.0239
same,solubility (mole fraction),"in n-butanol, 318.15 K",0.0287
same,solubility (mole fraction),"in n-butanol, 323.15 K",0.0333
same,solubility (mole fraction),"in n-butyl acetate, 283.15 K",0.0135
same,solubility (mole fraction),"in n-butyl acetate, 288.15 K",0.0153
same,solubility (mole fraction),"in n-butyl acetate, 293.15 K",0.0172
same,solubility (mole fraction),"in n-butyl acetate, 298.15 K",0.0194
same,solubility (mole fraction),"in n-butyl acetate, 303.15 K",0.022
same,solubility (mole fraction),"in n-butyl acetate, 308.15 K",0.0246
same,solubility (mole fraction),"in n-butyl acetate, 313.15 K",0.0274
same,solubility (mole fraction),"in n-butyl acetate, 318.15 K",0.0304
same,solubility (mole fraction),"in n-butyl acetate, 323.15 K",0.0336
same,solubility (mole fraction),"in n-pentyl acetate, 283.15 K",0.0117
same,solubility (mole fraction),"in n-pentyl acetate, 288.15 K",0.0137
same,solubility (mole fraction),"in n-pentyl acetate, 293.15 K",0.0157
same,solubility (mole fraction),"in n-pentyl acetate, 298.15 K",0.0178
same,solubility (mole fraction),"in n-pentyl acetate, 303.15 K",0.0203
same,solubility (mole fraction),"in n-pentyl acetate, 308.15 K",0.0229
same,solubility (mole fraction),"in n-pentyl acetate, 313.15 K",0.0261
same,solubility (mole fraction),"in n-pentyl acetate, 318.15 K",0.0289
same,solubility (mole fraction),"in n-pentyl acetate, 323.15 K",0.0334
same,solubility (mole fraction),"in n-propanol, 283.15 K",0.0097
same,solubility (mole fraction),"in n-propanol, 288.15 K",0.0119
same,solubility (mole fraction),"in n-propanol, 293.15 K",0.0145
same,solubility (mole fraction),"in n-propanol, 298.15 K",0.0171
same,solubility (mole fraction),"in n-propanol, 303.15 K",0.0206
same,solubility (mole fraction),"in n-propanol, 308.15 K",0.0243
same,solubility (mole fraction),"in n-propanol, 313.15 K",0.0288
same,solubility (mole fraction),"in n-propanol, 318.15 K",0.033
same,solubility (mole fraction),"in n-propanol, 323.15 K",0.0389
same,solubility (mole fraction),"in n-propyl acetate, 283.15 K",0.0146
same,solubility (mole fraction),"in n-propyl acetate, 288.15 K",0.0163
same,solubility (mole fraction),"in n-propyl acetate, 293.15 K",0.0187
same,solubility (mole fraction),"in n-propyl acetate, 298.15 K",0.0213
same,solubility (mole fraction),"in n-propyl acetate, 303.15 K",0.0237
same,solubility (mole fraction),"in n-propyl acetate, 308.15 K",0.0266
same,solubility (mole fraction),"in n-propyl acetate, 313.15 K",0.0301
same,solubility (mole fraction),"in n-propyl acetate, 318.15 K",0.033
same,solubility (mole fraction),"in n-propyl acetate, 323.15 K",0.0368
